Measurements: US9301999B2 (priority 2009, dated 2016)
Several values for one entry are separate records, joined by “and”; a condition that tells them apart may be missing. Equal entries are not always repeated. Entries after “also recorded” stand apart in the source; their conditions may differ. Where no end group is shown, it is not given here.

Legend:
[1] = tested on: anti-rPA serum IgG; parameters: species or system C3H/HeN female mice; settings: mouse, in vivo
[2] = tested on: anti-rPA IgG; parameters: species or system female C3H mice; settings: mouse, in vivo
[3] = tested on: anti-rPA IgG; parameters: species or system female C3H/HeN mice; settings: mouse, in vivo
[4] = tested on: anti-PA IgG; parameters: species or system Female C3H/HeN mice; settings: mouse, in vivo
[5] = tested on: anthrax lethal toxin; parameters: species or system C3H/HeN female mice; settings: mouse, in vivo
[6] = tested on: MC/9 mast cells; assay type: cell-based, murine; parameters: MCD10: concentration of peptide necessary to induce degranulation of 10% of mast cells: unit not given here; settings: for EC50: read-out: MCD50: concentration of peptide necessary to induce degranulation of 50% of mast cells
[7] = tested on: anti-WNV IgG; assay type: in vivo, Female BALB/c mice; settings: nasal, days 0, 7 and 21, WNV antigen 1 μg + 0.25 or 1.25 nmoles peptide; for Anti-WNV IgG titers in sera on day 28, versus antigen alone: ANOVA p<0.05; for anti-WNV IgG titers, difference versus mice that received MP7: serum day 28

For cholera toxin [CT, reference compound], the “serum anti-PA IgG geometric means titers (GMT), adjuvant activity” value (“serum anti-PA IgG geometric means titers” below) [1] was “did not significantly augment” and the “Tukey's Multiple Comparison Test versus rPA, Significant? P < 0.05?” value [2] was “Yes”.
For INLKALAALAKKIL [Mastoparan-OH], the “serum anti-rPA IgG titer versus mice immunized with rPA alone” value [3] was “not significantly different” and the “adjuvant activity as determined by serum anti-PA IgG endpoint titers” value (“adjuvant activity as determined” below) [4] was “provided adjuvant activity”.
With “INLKALAALAKALL [Mastoparan 7, INLKALAALAKALL—NH2, reference compound]” the “serum anti-PA IgG geometric means titers” value [1] was “significantly increased”, the “lethal toxin neutralizing antibody response in serum” value [5] was “neutralized anthrax lethal toxin; also recorded: significantly increased versus all other groups” and the “% MC/9 Degranulation” value [6] was 50.25% and 80.20%. For the same substance, the “% Mast Cell Degranulation” value [6] was 72.33% and 54.35% and 39.12%, the “MCD10: concentration of peptide necessary to induce degranulation of 10% of mast cells” value (“MCD10: concentration … of 10% of mast cells” for short) [6] was 6.31 and the “mast cell degranulation (β-hexosaminidase released into the culture medium)” value [6] was “induced mast cell degranulation”. The EC50 [6] was 18.1 µM, the “Anti-WNV IgG titers in sera on day 28, versus antigen alone” value [7] was “significantly greater” and the “serum anti-rPA IgG titers, difference between the -OH and -NH2 forms” value [3] was “no significant difference”.
For I N L K A L A A L A K A L L [MP7-OH], the “% Mast Cell Degranulation” value [6] was 2.87% and the “serum anti-rPA IgG titers, difference between the -OH and -NH2 forms” value [3] was “no significant difference”.
In the case of KLKLLLLLKLK-NH2, the “adjuvant activity as determined” value [4] is reported as “did not provide adjuvant activity”.
“INLKALAALAKLIL [MP-12L, I N L K A L A A L A K L I L]” was tested, and the “MCD10: concentration … of 10% of mast cells” value [6] was 2.30, the EC50 [6] was 5.19 µM and the “Anti-WNV IgG titers in sera on day 28, versus antigen alone” value [7] was “significantly greater”. The “anti-WNV IgG titers, difference versus mice that received MP7” value [7] was “no significant difference”.
With WRWRWWWWWWRRWW-NH2 [Duke Mast F] the “Tukey's Multiple Comparison Test versus CT, Significant? P < 0.05?” value [2] was “No”, the “Tukey's Multiple Comparison Test versus Duke Mast I NH2, Significant? P < 0.05?” value [2] was “No” and the “Tukey's Multiple Comparison Test versus rPA, Significant? P < 0.05?” value [2] was “Yes”. The “adjuvant activity: serum anti-rPA IgG titers compared to rPA alone” value (from here on “adjuvant activity … compared to rPA alone”) [2] was “statistically significant adjuvant activity” and the “% MC/9 Degranulation” value [6] was 27.80% and 40.07%.
With WQWRWWWWWWRWWW-NH2 [Duke Mast I] the “Tukey's Multiple Comparison Test versus CT, Significant? P < 0.05?” value [2] was “No”, the “Tukey's Multiple Comparison Test versus rPA, Significant? P < 0.05?” value [2] was “Yes” and the “adjuvant activity … compared to rPA alone” value [2] was “statistically significant adjuvant activity”. For the same substance, the “% MC/9 Degranulation” value [6] was 30.50%.
INLKALAALAKKIL-NH2 [Mastoparan] was tested, and the “serum anti-PA IgG geometric means titers” value [1] was “significantly increased”, the “lethal toxin neutralizing antibody response in serum” value [5] was “neutralized anthrax lethal toxin; also recorded: significantly increased versus all other groups” and the “% MC/9 Degranulation” value [6] was 66.60%. The “MCD10: concentration … of 10% of mast cells” value [6] was 33.07, the “mast cell degranulation (β-hexosaminidase released into the culture medium)” value [6] was “induced mast cell degranulation” and the “serum anti-rPA IgG titer versus mice immunized with rPA alone” value [3] was “significantly greater”. The “adjuvant activity as determined” value [4] was “provided adjuvant activity”.
For “INLKALAALAKWIL [MP-12W, I N L K A L A A L A K W I L]”, the “MCD10: concentration … of 10% of mast cells” value [6] was 1.47, the EC50 [6] was 4.71 µM and the “Anti-WNV IgG titers in sera on day 28, versus antigen alone” value [7] was “significantly greater”. For the same substance, the “anti-WNV IgG titers, difference versus mice that received MP7” value [7] was “no significant difference”.
In the case of WQWRWWWWWWRRWW-NH2 [Duke Mast C], the “Tukey's Multiple Comparison Test versus CT, Significant? P < 0.05?” value [2] is reported as “No”, the “Tukey's Multiple Comparison Test versus Duke Mast F NH2, Significant? P < 0.05?” value [2] is reported as “No” and the “Tukey's Multiple Comparison Test versus Duke Mast I NH2, Significant? P < 0.05?” value [2] is reported as “No”. For the same substance, the “Tukey's Multiple Comparison Test versus rPA, Significant? P < 0.05?” value [2] was “Yes”, the “adjuvant activity … compared to rPA alone” value [2] was “statistically significant adjuvant activity” and the “% MC/9 Degranulation” value [6] was 47.90%.
For KLKLLLLLKLK-OH, the “adjuvant activity as determined” value [4] was “did not provide adjuvant activity”.
“INLKALAALAKIIL [MP-12I, I N L K A L A A L A K I I L]” was tested, and the “MCD10: concentration … of 10% of mast cells” value [6] was 2.32, the EC50 [6] was 12 µM and the “Anti-WNV IgG titers in sera on day 28, versus antigen alone” value [7] was “significantly greater”. The “anti-WNV IgG titers, difference versus mice that received MP7” value [7] was “no significant difference”.
In the case of “I N L K A L A A L A K A L L [MP7-Ac-NH2]”, the “% Mast Cell Degranulation” value [6] is reported as 54.46% and 47.52% and 29.89%.
With “I N L K A L A A L A K W I L [MP-12W-NH2]” the “% Mast Cell Degranulation” value [6] was 79.87% and 85.74% and 80.05%.
With “I N L K A L A A L A K H I L (INLKALAALAKHIL) [MP-12H]” the “MCD10: concentration … of 10% of mast cells” value [6] was 23.86.
For “INLKALAALAKFIL [MP-12F, I N L K A L A A L A K F I L]”, the “MCD10: concentration … of 10% of mast cells” value [6] was 4.39, the EC50 [6] was 9.22 µM and the “Anti-WNV IgG titers in sera on day 28, versus antigen alone” value [7] was “significantly greater”. The “anti-WNV IgG titers, difference versus mice that received MP7” value [7] was “no significant difference”.
With “I N L K A L A A L A K L I L [MP-12L-Ac-NH2]” the “% Mast Cell Degranulation” value [6] was 80.35% and 76.49% and 58.57%.
In the case of “I N L K A L A A L A K E I L (INLKALAALAKEIL) [MP-12E]”, the “MCD10: concentration … of 10% of mast cells” value [6] is reported as 40.32.
“I N L K A I A A L A K K I L (INLKAIAALAKKIL) [MP-6I]” was tested, and the “MCD10: concentration … of 10% of mast cells” value [6] was 61.14.
In the case of I N L K A L A A L A K F I L [MP-12F-Ac], the “% Mast Cell Degranulation” value [6] is reported as 2.75%.
INLKAKAALAKKLL-OH [Mastoparan 17] was tested, and the “serum anti-PA IgG geometric means titers” value [1] was “did not provide detectable adjuvant activity”, the “lethal toxin neutralizing antibody response in serum” value [5] was “did not induce lethal toxin neutralizing responses greater than those detected in mice immunized with rPA alone” and the “% MC/9 Degranulation” value [6] was 0%. The “adjuvant activity as determined” value [4] was “did not provide adjuvant activity”.
In the case of “I N L K A L A A L A K K W L (INLKALAALAKKWL) [MP-13W]”, the “MCD10: concentration … of 10% of mast cells” value [6] is reported as 22.76.
